≈ marks a conversion by molar mass, not a printed value. Entries after “also recorded” stand apart in the source; their conditions may differ. Like-named read-outs stand apart in the source and are kept apart here. Where a SMILES comes first, the peptide text is derived from it. [ ]: non-standard residue; d: D form. Sar = CNCC(=O)O
Columns and labels:
[1] = test system: New Zealand white rabbit cornea; test: In vitro transport across rabbit cornea (Ussing chamber); format: in vitro ADME
Protocol: (§1) In vitro transport of […], and GFX-LYS were carried out across the New Zealand white rabbit cornea and sclera-choroid-[…]). Rabbit eyes were obtained within 24 hr of harvesting from Pel-Freez Biologicals (Rogers, Ark.) and shipped overnight in Hank's balanced salt solution on wet ice. Eyes were used immediately upon arrival. Eyes were washed with assay buffer and cleaned from the muscle and unwanted tissues. […] The small part of the sclera left with cornea helps in mounting the cornea on Ussing chambers. For isolation of the SCRPE, anterior and posterior parts were separated by a circumferential cut at the limbus. […] After separation of the retina, the eye cup was flattened with small cuts around the globe. […] A circulating water bath was used to maintain the temperature at 37° C. during the transport study. The pH of the assay buffer was maintained at 7.4 using 95% air-5% CO2 aeration which also helps in stirring of bathing solutions. Samples were collected (200 μL) from the receiver side every 30 minute for 3 hr and the lost volume was replaced with fresh assay buffer pre-equilibrated at 37° C. GFX levels were analyzed using an LC-MS/MS assay. […] GFX concentrations in the transport study and ocular tissue samples were analyzed using a validated LC-MS/MS method. […] Chromatographic separation of GFX and the internal standard moxifloxacin was performed on Obelisc C18 column (2.1×10 mm, 3 μm). Elution of analytes was performed using linear gradient elution with mobile phase consisting of 5 mM ammonium formate (pH 3.5) and acetonitrile (pH 3.5) with a flow rate of 300 μl/min and total run time of 6 min.

[2] = test system: New Zealand white rabbit sclera-choroid-RPE (SCRPE); test: In vitro transport across rabbit sclera-choroid-RPE (Ussing chamber); format: in vitro ADME; conditions: for cumulative % transport / permeability compared with GFX (in words): rabbit SCRPE
Protocol: as §1

conjunctiva = test: In vitro transport of GFX prodrugs across conjunctiva; format: in vitro ADME, Rabbit
[3] = test system: human sclera-choroid-RPE (SCRPE); test: In vitro transport of transporter substrate cassette across human sclera-choroid-RPE
Protocol: In vitro transport studies across human cornea and sclera-choroid-RPE (SCRPE) were carried out according to previously published method using the cassette dosing approach. Briefly, cassette of drug transporter substrate including Gly-Sar (PEPT), L-tryptophan (ATB^0+), MPP^+ (OCT), and phenyl acetic acid (MCT) at concentration of 100 μM in assay buffer was prepared. Briefly, the human eyes were washed with assay buffer and cleaned from muscle and conjunctiva tissues, and anterior and posterior parts were separated by giving circumferential cut behind the limbus. Small sclera part was left with cornea, which helps in mounting of cornea on Ussing chambers. Neural retina was separated from the choroid-RPE by filling the eye cup with assay buffer, and floating retina was collected. After separation of retina, eye cup was divided into two rectangular pieces (˜1.5×1.5 cm) of sclera-choroid-RPE. Isolated tissues were mounted on modified Ussing chambers (Navicyte, Sparks, Nev.) such that the episcleral side of SCRPE or epithelial side of cornea was facing the donor chamber and retinal side or endothelial side of cornea is facing the receiver chamber. To study the effect of directionality on transport, one set of Ussing chambers mounted so that sclera side facing the donor side and another set was mounted so that choroid-RPE facing the donor side. The effect of directionality of transport across cornea was not evaluated. The chambers were filled with 1.5 ml of assay buffer with (donor side) or without (receiver side) the cocktail of drug transporter substrates. For study of effect of transporter inhibitors, cocktail mixture (500 μM) of transporter inhibitor was added on both donor and acceptor side.
During the transport study, the bathing fluids were maintained at 37° C. using a circulating warm water and pH 7.4 using 95% air-5% CO2 aeration. Samples were collected (200 μL) form receiver side every hour for 6 hr and the lost volume was compensated with fresh assay buffer pre-equilibrated at 37° C. The drug levels were analyzed using a LC-MS/MS assay. Permeation data were corrected for dilution of the receiver solution with sample volume replenishment.
Analytes concentrations in transport study samples were analyzed using LC-MS/MS method after 5-fold dilution with acetonitrile to reduce the salt concentrations. Cassette analysis method was developed for simultaneous analysis of Gly-Sar, L-tryptophan and MPP^+. Phenyl acetic acid was analyzed separately in negative ionization method and normal phase separation method. An API-3000 triple quadrupole mass spectrometry (Applied Biosystems, Foster City, Calif., USA) coupled with a PerkinElmer series-200 liquid chromatography (Perkin Elmer, Walthm, Mass., USA) system was used for analysis. Gly-Sar, L-tryptophan and MPP^+ were separated on Supelco C-5 column (2.1×10 mm, 3 μm) using water containing 0.1% formic acid (A) and acetonitrile:methanol (50:50 v/v) containing 0.1% formic acid (B) as mobile phase and a linear gradient elution at a flow rate of 0.3 ml/min with total run time of 9 min. Phenyl acetic acid was separated in normal phase separation mode using Obelisc-N silica column (2.1×10 mm, 3 μM) using 5 mM ammonium formate, pH 3.5 (A) and acetonitrile (B) as mobile phase in linear gradient mode at flow rate of 0.3 ml with total run time of 6 min. Gly-Sar, L-tryptophan, and MPP^+ were analyzed in positive ionization mode with following multiple reaction monitoring (MRM) transitions: 147→90 (Gly-Sar); 205→188 (L-tryptophan); 170→128 (MPP^+). Phenyl acetic acid was analyzed in negative ionization mode with following multiple reaction monitoring (MRM) transitions: 135→91 (Phenyl acetic acid).

[4] = test system: calf sclera-choroid-RPE (SCRPE); test: In vitro transport of substrate cassette across normoxic and hypoxic calf SCRPE
Excerpt: (§2) Animals used in this study were those that were sacrificed as part of other experiments approved by the Institutional Animal Care Committee of the Colorado State University (Fort Collins) and University of Colorado Anschutz Medical campus. Hypoxic and normoxic calf eyes were obtained from the Department of Physiology, School of Veterinary Medicine, Colorado State University (Fort Collins, Colo.). Briefly, 1 day old male Holstein calves (n=4) were kept in hypobaric hypoxic chambers (PB=445 mm Hg) for 2 weeks. For control experiment, age matched calves (n=4) were kept at ambient altitude (PB=650 mm Hg) and normoxia for two weeks. Hypoxic and normoxic rat eyes were obtained from the Department of Medicine, University of Colorado Anschutz Medical campus (Aurora, Colo.). Sprague Dawley rats (n=4) were maintained in hypobaric hypoxic chambers (PB=380 mm Hg) for 6 weeks and age matched controls were kept at ambient pressure and normoxia.
(§3) In vitro transport studies across hypoxic and control calf cornea and sclera-choroid-RPE (SCRPE) were carried using cassette dosing approach. A cassette of drug transporter substrates, Gly-Sar (PEPT), valacylovir (ATB^0+), MPP^+ (OCT), and phenylacetic acid (MCT) at a concentration of 100 μM each in assay buffer was prepared. Briefly, the calf eyes were harvested immediately after euthanasia and transferred to the laboratory on ice. Upon arrival in the lab, the eyes were washed with assay buffer and cleaned from muscle and unwanted tissues. Anterior and posterior parts were separated by circumferential cut at the limbus. Vitreous was removed and the neural retina was separated from the choroid-RPE by filling the eye cup with assay buffer. The retina afloat in assay buffer was isolated and the eye cup was divided into two pieces (˜1.5×1.5 cm) of sclera-choroid-RPE. Isolated tissues were mounted on modified Ussing chambers (Navicyte, Sparks, Nev.) such that the episcleral side of SCRPE or epithelial side of cornea was facing the donor chamber and retinal side or endothelial side of the cornea was facing the receiver chamber. The chambers were filled with 1.5 ml of assay buffer at 37° C. with (donor side) or without (receiver side) the cocktail of drug transporter substrates. For the study of effect of transporter inhibitors, cocktail mixture (500 μM) of transporter inhibitors was added on both donor and acceptor sides.
(§4) During the transport study, the bathing fluids were maintained at 37° C. using circulating warm water. The pH of the fluids was maintained at pH 7.4 using 95% air-5% CO2 aeration. Samples were collected (200 μL) from receiver side every hour for 6 hours and the removed volume was replaced with fresh assay buffer pre-equilibrated to 37° C. Drug levels were analyzed using a LC-MS/MS assay. Permeation data were corrected for dilution of the receiver concentrations with sample volume replenishment.
(§5) Analyte concentrations in transport study samples were measured using LC-MS/MS method after 5-fold dilution with acetonitrile to reduce the salt concentrations. A cassette analysis method was developed for simultaneous analysis of Gly-Sar, valacylovir, and MPP Phenyl acetic acid was analyzed separately with a negative ionization method and a normal phase separation method. An API-3000 triple quadrupole mass spectrometry (Applied Biosystems, Foster City, Calif., USA) coupled with a PerkinElmer series-200 liquid chromatography (Perkin Elmer, Waltham, Mass., USA) system was used for analysis. Gly-Sar, valacylovir and MPP were separated on Supelco C-5 column (2.1×10 mm, 3 μm) using water containing 0.1% formic acid (A) and acetonitrile:methanol (50:50 v/v) containing 0.1% formic acid (B) as mobile phase. A linear gradient elution at a flow rate of 0.3 ml/min with a total run time of 9 min was employed. Phenyl acetic acid was separated in normal phase separation mode on Obelisc-N silica column (2.1×10 mm, 3 μM) using 5 mM ammonium formate at pH 3.5 (A) and acetonitrile (B) as mobile phase.

calf cornea = test: In vitro transport of substrate cassette across normoxic and hypoxic calf cornea
Excerpt: as §2, §3, §4, §5

solubility (physchem; water)	solubility (physchem; water for injection)	Structure (SMILES)	also measured
35 µg/mL (≈ 65.1 µM)	35 µg/mL (≈ 65.1 µM)	Cc1ccc(-c2cc(C(F)(F)F)nn2-c2ccc(S(=O)(=O)NC(=O)C(N)CCCNC(=N)N)cc2)cc1 (stereo not shown) [CXB-ARG]	–
–	16 µg/mL (≈ 32.4 µM)	Cc1ccc(-c2cc(C(F)(F)F)nn2-c2ccc(S(=O)(=O)NC(=O)C(N)CC(C)C)cc2)cc1 (stereo not shown) [CXB-LEU]	–
50 µg/mL (≈ 98.1 µM)	50 µg/mL (≈ 98.1 µM)	Cc1ccc(-c2cc(C(F)(F)F)nn2-c2ccc(S(=O)(=O)NC(=O)C(N)CCCCN)cc2)cc1 (stereo not shown) [CXB-LYS, 2,6-diamino-N-(4-(5-p-tolyl-3-(trifluoromethyl)-1H-pyrazol-1-yl)phenylsulfonyl)hexanamide]	–
–	620 µg/mL (≈ 1250 µM)	Cc1ccc(-c2cc(C(F)(F)F)nn2-c2ccc(S(=O)(=O)NC(=O)CCCC(=O)O)cc2)cc1 [CXB-MCT, 5-oxo-5-(4-(5-(p-tolyl)-3-(trifluoromethyl)-1H-pyrazol-1-yl)phenylsulfonamido)pentanoic acid]	–
–	3220 µg/mL (≈ 6510 µM)	Cc1ccc(-c2cc(C(F)(F)F)nn2-c2ccc(S(=O)(=O)NC(=O)CCCN(C)C)cc2)cc1 [CXB-OCT, 4-(dimethylamino)-N-((4-(5-(p-tolyl)-3-(trifluoromethyl)-1H-pyrazol-1-yl)phenyl)sulfonyl)butanamide]	–
–	2160 µg/mL (≈ 4420 µM)	COc1c(N2CCN(C(=O)C(N)CC(C)C)C(C)C2)c(F)cc2c(=O)c(C(=O)O)cn(C3CC3)c12 (stereo not shown) [GFX-LEU, 7-(4-(2-amino-4-methylpentanoyl)-3-methylpiperazin-1-yl)-1-cyclopropyl-6-fluoro-8-methoxy-4-oxo-1,4-dihydroquinoline-3-carboxylic acid]	–
48000 µg/mL (≈ 95300 µM)	48000 µg/mL (≈ 95300 µM)	COc1c(N2CCN(C(=O)C(N)CCCCN)C(C)C2)c(F)cc2c(=O)c(C(=O)O)cn(C3CC3)c12 (stereo not shown) [GFX-LYS, 1-cyclopropyl-7-(4-(2,6-diaminohexanoyl)-3-methylpiperazin-1-yl)-6-fluoro-8-methoxy-4-oxo-1,4-dihydroquinoline-3-carboxylic acid]	cumulative % transport / permeability compared with GFX (in words) [1]: not significantly different from GFX; cumulative % transport / permeability compared with GFX (in words) [2]: not significantly different from GFX
–	3010 µg/mL (≈ 6540 µM)	COc1c(N2CCNC(C)C2)c(F)cc2c(=O)c(C(=O)NCCCC(=O)O)cn(C3CC3)c12 (stereo not shown) [GFX-MCT, 4-(1-cyclopropyl-6-fluoro-8-methoxy-7-(3-methylpiperazin-1-yl)-4-oxo-1,4-dihydroquinoline-3-carboxamido)butanoic acid]	cumulative % transport / permeability compared with GFX (in words) [1]: significantly (p<0.01) higher than GFX; transport in presence of nicotinic acid (competitive inhibitor of MCT) ([2]; SCRPE): not across SCRPE; cumulative % transport / permeability compared with GFX (in words) [2]: significantly (p<0.01) higher than GFX; cumulative % transport compared with GFX (in words) (conjunctiva): significantly (p<0.01) higher than GFX; transport in presence of nicotinic acid (competitive inhibitor of MCT) (conjunctiva): significantly inhibited; also recorded: only inhibited by nicotinic acid across conjunctiva
–	–	CN(CC(=O)O)C(=O)CN [Gly-Sar] (H-Gly-[Sar]-OH)	sclera to retina transport higher than retina to sclera transport [3]: 1.6-2.0 fold; apparent permeability (Papp) across hypoxic vs normoxic tissue (in words) [4]: significantly higher across normoxic SCRPE than hypoxic SCRPE; apparent permeability (Papp) across hypoxic vs normoxic tissue (in words) (calf cornea): significantly higher across normoxic cornea than hypoxic cornea
–	–	N[C@@H](Cc1c[nH]c2ccccc12)C(=O)O [L-tryptophan]	sclera to retina transport higher than retina to sclera transport ([3]; human, 6 h, 100 μM, pH 7.4): 1.6-2.0 fold
